According to ChEMBL document CHEMBL1201862, “PubChem BioAssay data set” (2004):
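Assay format: 96-well plates, 48-hour exposure. GI50 is the concentration that inhibits growth by half.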 The source made the active and inactive calls. No stated cut-off is given here; in the data, active = GI50 up to about 1.1 µM and inactive = higher.

Key:
Assay in all cases: growth of human tumour cells (NCI), 48 h
786-0 = system: 786-0
A498 = system: A498
A549 = system: A549
ACHN = system: ACHN
CCRF-CEM = system: CCRF-CEM
COLO 205 = system: COLO 205
DU-145 = system: DU-145
EKVX = system: EKVX
HCT-116 = system: HCT-116
HCT-15 = system: HCT-15
HOP-62 = system: HOP-62
HT-29 = system: HT-29
Hs-578T = system: Hs-578T
IGROV-1 = system: IGROV-1
K562 = system: K562
KM12 = system: KM12
LOX IMVI = system: LOX IMVI
M14 = system: M14
MCF7 = system: MCF7
MDA-MB-231 = system: MDA-MB-231
MDA-MB-435 = system: MDA-MB-435
MDA-N = system: MDA-N
MOLT-4 = system: MOLT-4
Malme-3M = system: Malme-3M
NCI-H226 = system: NCI-H226
NCI-H23 = system: NCI-H23
NCI/ADR-RES = system: NCI/ADR-RES
OVCAR-3 = system: OVCAR-3
OVCAR-4 = system: OVCAR-4
OVCAR-5 = system: OVCAR-5
OVCAR-8 = system: OVCAR-8
PC-3 = system: PC-3
RPMI-8226 = system: RPMI-8226
SF-268 = system: SF-268
SF-295 = system: SF-295
SF-539 = system: SF-539
SK-MEL-28 = system: SK-MEL-28
SK-MEL-2 = system: SK-MEL-2
SK-MEL-5 = system: SK-MEL-5
SK-OV-3 = system: SK-OV-3
SN12C = system: SN12C
SNB-19 = system: SNB-19
SNB-75 = system: SNB-75
SR = system: SR
SW-620 = system: SW-620
TK-10 = system: TK-10
U-251 = system: U-251
UACC-257 = system: UACC-257
UACC-62 = system: UACC-62
UO-31 = system: UO-31
HL-60 = system: HL-60
BT-549 = system: BT-549
CAKI-1 = system: CAKI-1
HCC 2998 = system: HCC 2998
HOP-92 = system: HOP-92
NCI-H460 = system: NCI-H460
NCI-H522 = system: NCI-H522
RXF 393 = system: RXF 393

CC(=O)Oc1cc(OC(C)=O)c2c(C)cc(=O)oc2c1
GI50 (786-0): > 100 µM (inactive)
GI50 (A498): 41 µM (inactive)
GI50 (A549): > 100 µM (inactive)
GI50 (ACHN): > 100 µM (inactive)
GI50 (CCRF-CEM): > 100 µM (inactive)
GI50 (COLO 205): > 100 µM (inactive)
GI50 (DU-145): > 100 µM (inactive)
GI50 (EKVX): > 100 µM (inactive)
GI50 (HCT-116): > 100 µM (inactive)
GI50 (HCT-15): > 100 µM
GI50 (HOP-62): > 100 µM (inactive)
GI50 (HT-29): > 100 µM (inactive)
GI50 (Hs-578T): > 100 µM (inactive)
GI50 (IGROV-1): 95.7 µM (inactive)
GI50 (K562): > 100 µM (inactive)
GI50 (KM12): > 100 µM (inactive)
GI50 (LOX IMVI): > 100 µM (inactive)
GI50 (M14): 87.3 µM (inactive)
GI50 (MCF7): 76.2 µM (inactive)
GI50 (MDA-MB-231): > 100 µM (inactive)
GI50 (MDA-MB-435): > 100 µM (inactive)
GI50 (MDA-N): > 100 µM (inactive)
GI50 (MOLT-4): > 100 µM (inactive)
GI50 (Malme-3M): > 100 µM (inactive)
GI50 (NCI-H226): > 100 µM (inactive)
GI50 (NCI-H23): > 100 µM (inactive)
GI50 (NCI/ADR-RES): > 100 µM (inactive)
GI50 (OVCAR-3): > 100 µM (inactive)
GI50 (OVCAR-4): > 100 µM (inactive)
GI50 (OVCAR-5): > 100 µM (inactive)
GI50 (OVCAR-8): > 100 µM (inactive)
GI50 (PC-3): > 100 µM (inactive)
GI50 (RPMI-8226): > 100 µM (inactive)
GI50 (SF-268): > 100 µM (inactive)
GI50 (SF-295): > 100 µM (inactive)
GI50 (SF-539): 36.1 µM (inactive)
GI50 (SK-MEL-28): > 100 µM (inactive)
GI50 (SK-MEL-2): > 100 µM (inactive)
GI50 (SK-MEL-5): > 100 µM (inactive)
GI50 (SK-OV-3): > 100 µM (inactive)
GI50 (SN12C): > 100 µM (inactive)
GI50 (SNB-19): > 100 µM (inactive)
GI50 (SNB-75): 66.8 µM (inactive)
GI50 (SR): > 100 µM (inactive)
GI50 (SW-620): > 100 µM (inactive)
GI50 (TK-10): 97.7 µM (inactive)
GI50 (U-251): > 100 µM (inactive)
GI50 (UACC-257): > 100 µM (inactive)
GI50 (UACC-62): > 100 µM (inactive)
GI50 (UO-31): 67.3 µM (inactive)

CC1C(=O)C(C)C(c2ccccc2)N(C)C1c1ccccc1 (stereo not given)
GI50 (HL-60): 20.7 µM (inactive)
GI50 (HT-29): 28.6 µM (inactive)
GI50 (MOLT-4): 19.9 µM (inactive)
GI50 (OVCAR-5): 50.9 µM (inactive)
GI50 (RPMI-8226): 21.8 µM (inactive)
GI50 (SR): 20.2 µM (inactive)

Cc1nc2nnc(CCCCCCCCc3nnc4nc(C)[nH]n34)n2[nH]1
GI50 (786-0): > 100 µM (inactive)
GI50 (A498): > 100 µM (inactive)
GI50 (A549): > 100 µM (inactive)
GI50 (ACHN): > 100 µM (inactive)
GI50 (BT-549): > 100 µM (inactive)
GI50 (CAKI-1): > 100 µM (inactive)
GI50 (CCRF-CEM): > 100 µM (inactive)
GI50 (COLO 205): > 100 µM (inactive)
GI50 (DU-145): > 100 µM (inactive)
GI50 (EKVX): > 100 µM (inactive)
GI50 (HCC 2998): > 100 µM (inactive)
GI50 (HCT-116): > 100 µM (inactive)
GI50 (HCT-15): > 100 µM
GI50 (HL-60): > 100 µM (inactive)
GI50 (HOP-62): > 100 µM (inactive)
GI50 (HOP-92): > 100 µM (inactive)
GI50 (HT-29): > 100 µM (inactive)
GI50 (IGROV-1): > 100 µM (inactive)
GI50 (K562): > 100 µM (inactive)
GI50 (KM12): 66.1 µM (inactive)
GI50 (LOX IMVI): 47.4 µM (inactive)
GI50 (M14): > 100 µM (inactive)
GI50 (MCF7): > 100 µM (inactive)
GI50 (MDA-MB-231): > 100 µM (inactive)
GI50 (MDA-MB-435): > 100 µM (inactive)
GI50 (MDA-N): > 100 µM (inactive)
GI50 (MOLT-4): > 100 µM (inactive)
GI50 (Malme-3M): > 100 µM (inactive)
GI50 (NCI-H226): > 100 µM (inactive)
GI50 (NCI-H23): > 100 µM (inactive)
GI50 (NCI-H460): > 100 µM (inactive)
GI50 (NCI-H522): 60.5 µM (inactive)
GI50 (NCI/ADR-RES): > 100 µM (inactive)
GI50 (OVCAR-3): > 100 µM (inactive)
GI50 (OVCAR-4): > 100 µM (inactive)
GI50 (OVCAR-5): > 100 µM (inactive)
GI50 (OVCAR-8): > 100 µM (inactive)
GI50 (PC-3): > 100 µM (inactive)
GI50 (RXF 393): > 100 µM (inactive)
GI50 (SF-268): > 100 µM (inactive)
GI50 (SF-295): > 100 µM (inactive)
GI50 (SF-539): > 100 µM (inactive)
GI50 (SK-MEL-28): > 100 µM (inactive)
GI50 (SK-MEL-2): > 100 µM (inactive)
GI50 (SK-MEL-5): > 100 µM (inactive)
GI50 (SK-OV-3): > 100 µM (inactive)
GI50 (SN12C): > 100 µM (inactive)
GI50 (SNB-19): > 100 µM (inactive)
GI50 (SNB-75): > 100 µM (inactive)
GI50 (SW-620): > 100 µM (inactive)
GI50 (TK-10): > 100 µM (inactive)
GI50 (U-251): > 100 µM (inactive)
GI50 (UACC-257): > 100 µM (inactive)
GI50 (UO-31): > 100 µM (inactive)
